# Measured values published in paper PMC8269059, “Glycyrrhizin Derivatives Suppress Cancer Chemoresistance by Inhibiting Progesterone Receptor Membrane Component 1” (Cancers, 2021).
# Experiments:
# [1] = molecular target: T1, interaction between PGRMC1 and EGFR (Homo sapiens, UniProt O00264); assay: Co-immunoprecipitation of PGRMC1 and EGFR in HCT116 cells; type: cell-based; details: HCT116, FLAG-PGRMC1 co-IP, 12 h treatment
# T1 construct: mammalian FLAG-tagged expression vector pCMV-FLAG-PGRMC1 (full-length); expressed in transfected cells; host or cells: HCT116 or HuH7
# T1 sequence (O00264 whole entry): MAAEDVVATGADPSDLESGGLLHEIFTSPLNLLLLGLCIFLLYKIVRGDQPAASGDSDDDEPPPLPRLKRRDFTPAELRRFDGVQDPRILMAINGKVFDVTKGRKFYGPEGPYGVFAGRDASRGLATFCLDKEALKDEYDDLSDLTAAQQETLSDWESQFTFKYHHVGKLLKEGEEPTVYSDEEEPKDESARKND
# Procedure: (§1) An expression vector of pCMV-3xFLAG-PGRMC1 or an empty vector was transfected into HCT116 cells or HuH7 cells using the transfection reagent Lipofectamine 2000 (Invitrogen). The cells were incubated overnight with either GL or GlucoGL. Cells were then lysed with NP40 lysis buffer (20 mM Tris-HCl [pH 7.5], 150 mM NaCl, and 1% NP40). The lysates were incubated with 10 μL of equilibrated anti-FLAG (M2) agarose for 60 min at room temperature. Bound proteins were washed three times and subjected to SDS-PAGE and visualized through western blotting using antibodies against FLAG, EGFR, and LDLR. For analysis of the endogenous PGRMC1-binding with FLAG-PGRMC1, HCT116 cells (1 × 10^7 cells) were treated with vehicle or 250 μM SA and/or 10 μM hemin for 48 h, and the cell lysates were co-immunoprecipitated with anti-FLAG (M2) agarose. Bound proteins (endogenous PGRMC1 and FLAG-tagged PGRMC1) were visualized through western blotting using antibody against PGRMC1.
# HCT116 cells xenograft = assay: HCT116 xenograft in nude mice; type: in vivo, mouse; details: i.p. twice a week, vs control; for Tumor volume, in combination with CDDP: CDDP 2 mg/kg plus GL 400 mg/kg (day 22) or GlucoGL 100 mg/kg (from day 15)
# Procedure: All protocols for animal experiments in this study were approved by the Experimental Animal Committee of Keio University School of Medicine (approval number: 08024-(13), approval date: 30 September 2020). HCT116 cells (2 × 10^6 cells/mouse) with half of Matrigel (Corning, NY, USA) were transplanted subcutaneously into the flank of 7-week-old nude mice. Four days after the transplantation, tumor size was measured in three dimensions with calipers and grouped by tumor volume. CDDP (2 mg/kg), GL (400 mg/kg), or GlucoGL (100 mg/kg) were administered to the mice intraperitoneally, and the tumor volume was measured twice a week for 22 days.
# [2] = tested on: EGFR signaling (phosphorylation of EGFR, AKT, ERK); assay: EGF-induced EGFR signaling (western blot) in HCT116 cells; type: cell-based, human; details: for EGF-induced phosphorylation of EGFR, AKT and ERK: HCT116, EGF 100 ng/mL for 5 min
# Source text: […] Cells were lysed with RIPA buffer, and the lysates were subjected to SDS-PAGE and visualized through western blotting using antibodies against PGRMC1, EGFR, phospho-Y1068 EGFR, AKT, phospho-S473AKT, ERK, and phospho-T185 Y187 ERK.
# [3] = molecular target: T1, interaction between PGRMC1 and EGFR; assay: Co-immunoprecipitation of PGRMC1 and EGFR in HuH7 cells; type: cell-based; details: HuH7, FLAG-PGRMC1 co-IP, 12 h treatment
# Procedure: as §1
# HuH7 cells = assay: Chemosensitivity MTT assay in HuH7 cells; type: cell-based, human
# Procedure: The HCT116 cells, a human colon cancer cell line, and HuH7 cells, a human hepatoma cell line, were maintained in Dulbecco’s modified Eagle’s medium (DMEM) containing 10% fetal bovine serum (FBS) and 1% penicillin-streptomycin at 37 °C in a 5% CO2 humidified incubator. The PGRMC1 knockdown (KD) cell line was established in a previous study using lentivirus vectors.
# To analyze the chemosensitivity of HCT116 or HuH7 cells, the cells were incubated with erlotinib (20 µM) or CDDP (10 µM) and either GL or GL derivatives for 24 h on a 96-well plate. Cell viability was determined using an MTT assay kit (Millipore, Burlington, MA, USA) according to the manufacturer’s instructions.
# HMGB1 = molecular target: T2, HMGB1 (Homo sapiens, UniProt P09429); assay: ITC binding to HMGB1; details: HMGB1 80 µM, compound 3 mM
# T2 construct: human HMGB1 full-length cDNA was cloned from cDNA library of HCT116 cells; GST (N, cleaved yes); made in house; host or cells: E. coli BL21 (DE3)
# T2 sequence (P09429 whole entry): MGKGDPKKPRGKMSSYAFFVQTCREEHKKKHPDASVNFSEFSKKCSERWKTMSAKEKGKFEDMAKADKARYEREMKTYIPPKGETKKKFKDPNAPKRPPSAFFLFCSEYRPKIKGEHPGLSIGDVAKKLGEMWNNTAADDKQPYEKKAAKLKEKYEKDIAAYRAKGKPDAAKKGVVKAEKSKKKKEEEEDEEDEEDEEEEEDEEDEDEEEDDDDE
# Source text: Bacterial expression vectors pGEX-PGRMC1 (human PGRMC1 intracellular domain residues 43-195) and mammalian FLAG-tagged expression vector pCMV-FLAG-PGRMC1 (full-length) were constructed as described previously. Expression vectors for PGRMC1 point mutants were generated by site-directed mutagenesis with PCR. For construction of HMGB1 expression vector, human HMGB1 full-length cDNA was cloned from cDNA library of HCT116 cells using the primers (Forward: 5′-[…]-3′, Reverse: 5′-[…]-[…]-3′), digested with Bam HI and Sal I, and then ligated into pGEX6P1.
# Expression vectors (pGEX-PGRMC1 (residues 43-195) or pGEX-HMGB1) were transformed into BL21 (DE3) competent E. coli cells, and the cells incubated in LB medium with ampicillin at 37 °C until the OD600 reached 0.8. Protein expression was induced by adding 1 mM isopropyl-β-thiogalactopyranoside (IPTG) and incubating at 37 °C for 4 h. […]
# ITC experiments were performed at 298 K with ITC-Buffer (50 mM phosphate [pH 7.0]) using a MicroCal iTC200 (Malvern Panalytical, Malvern, UK). […] Binding isotherms were analyzed using SEDPHAT [35]. The binding of AG205 to apo- or heme-PGRMC1 (100 μM) was analyzed using a concentration of 3 mM containing 1% DMSO. […]
# [4] = molecular target: T3, interaction between PGRMC1 and LDLR (Homo sapiens, UniProt O00264); assay: Co-immunoprecipitation of PGRMC1 and LDLR in HCT116 cells; type: cell-based; details: HCT116, FLAG-PGRMC1 co-IP, 12 h treatment
# T3 construct: mammalian FLAG-tagged expression vector pCMV-FLAG-PGRMC1 (full-length); expressed in transfected cells; host or cells: HCT116
# T3 sequence (O00264 whole entry): as the sequence (O00264 whole entry) above
# Procedure: as §1
Compound,Interaction between PGRMC1 and EGFR [1],"Tumor volume, in combination with CDDP (HCT116 cells xenograft)","EGF-induced phosphorylation of EGFR, AKT and ERK [2]","EGF signaling, time-course ([2]; HCT116, early phase of EGF stimulation (5 or 10 min))",Interaction between PGRMC1 and EGFR [3],Cell viability with erlotinib or CDDP (HuH7 cells),KD for HMGB1 (HMGB1),Interaction between PGRMC1 and LDLR [4],"Tumor volume, administered individually (HCT116 cells xenograft; 22 days, CDDP 2 mg/kg, GL 400 mg/kg)",Kd (HMGB1) [µM]
"CC1(C(=O)O)CCC2(C)CCC3(C)C(=CC(=O)C4C5(C)CCC(OC6OC(C(=O)O)C(O)C(O)C6OC6OC(CO)C(O)C(O)C6O)C(C)(C)C5CCC43C)C2C1 (stereo not shown) [Glucoglycyrrhizin (GlucoGL), Glucoglycyrrhizin]",inhibited the interaction more potently,significantly suppressed the tumor volume,significantly suppressed,remarkable inhibitory effect,inhibited the interaction,significantly suppressed cell viability,weak binding,inhibited this interaction more potently,,
"CC1(C)[C@@H](O[C@H]2O[C@H](C(=O)O)[C@@H](O)[C@H](O)[C@H]2O[C@@H]2O[C@H](C(=O)O)[C@@H](O)[C@H](O)[C@H]2O)CC[C@]2(C)[C@H]3C(=O)C=C4[C@@H]5C[C@@](C)(C(=O)O)CC[C@]5(C)CC[C@@]4(C)[C@]3(C)CC[C@@H]12 [Glycyrrhizin (GL), Glycyrrhizin]",inhibited,significantly smaller,significantly suppressed,,inhibited the interaction,significantly suppressed cell viability,,inhibited,no differences in tumor volume,223
